IC50 data for 24 compounds are collected here from patent publication US8846711B2, “Heterocyclic acrylamides and their use as pharmaceuticals” (Fab Pharma S.A.S., priority 2009, dated 2014).

Structures are written as SMILES.

This experiment has as its target recombinant S. aureus FabI enzyme (Staphylococcus aureus (strain MRSA252), UniProt Q6GI75). The experiment can be described thus: FabI inhibition, fluorescence based assay. The class given is biochemical. Particulars: in vitro. The protocol: Compound inhibitory activity of FabI enzyme is measured in vitro by the […] determination using a fluorescence based assay.
The protein FabI from S. aureus is prepared and purified using standard methods for recombinant protein expression after cloning of the gene in a prokaryotic expression vector.
The biochemical activity of the FabI enzyme is assessed using the following method.
The assay buffer “AB” contained 50 mM ADA (N-(2-acetamido)iminodiacetic acid monosodium salt) pH 6.5, 1 mM dithiothreitol, 0.006% Triton-X100 and 50 mM NaCl.
The following components are added in a white polystyrene Costar plate (Ref 3912) up to a final volume of 55.5 μL: 1.5 μL DMSO or inhibitor dissolved in DMSO and 54 μL of a FabI/NADPH/NADP+ mixture in AB. After 60 min of pre-incubation at room temperature, the reaction is started by addition of 5 μL of trans-2-octenoyl N-acetylcysteamine thioester (t-o-NAC) to a final volume of 60.5 μL. This reaction mixture is then composed of 2 nM FabI, 40 μM NADPH (Sigma, N7505), 10 μM NADP+ (Sigma, N5755), 100 μM t-O-NAC and compound at defined concentration. Fluorescence intensity of NADPH (λex=360 nm, […]) is measured immediately after t-O-NAC addition (T0), and approximately 50 min later (T50) by a Fluostar Optima (BMG) so as to achieve ±30% of NADPH conversion. Enzyme activity is calculated by first subtracting TO signal to T50 and then subtracting background signal (FabI=0). Percentages of inhibition are calculated against untreated samples (Inhibitor=0) and IC50 are fitted to a classical Langmuir equilibrium model using XLFIT (IDBS).
As usually defined, the IC50 is the concentration at which inhibition is half-maximal. For `O=C1CCc2cc(/C=C/C(=O)N3CCCC3c3ccccc3)cnc2N1` (stereo not drawn) [Example 7, 6-[(1E)-3-Oxo-3-(2-phenylpyrrolidin-1-yl)prop-1-en-1-yl]-3,4-dihydro-1,8-naphthyridin-2(1H)-one], the IC50 is 7100 nM.

On to `CCCCCS(=O)(=O)C1CN(C(=O)/C=C/c2cnc3c(c2)CCC(=O)N3)C1` [Example 22, 6-{(1E)-3-[3-(Pentylsulfonyl)azetidin-1-yl]-3-oxoprop-1-en-1-yl}-3,4-dihydro-1,8-naphthyridin-2(1H)-one], for which the IC50 came out at 8600 nM.

Regarding `Nc1ccc(/C=C/C(=O)N2CC(OCc3ccncc3)C2)cn1` [Example 23, 5-{(1E)-3-Oxo-3-[3-(pyridin-4-ylmethoxy)azetidin-1-yl]prop-1-en-1-yl}pyridin-2-amine], the IC50 stood at 1800 nM.

`Cc1nc(C2CN(C(=O)/C=C/c3cnc4c(c3)CCC(=O)N4)C2)no1` [Example 11, 6-{(1E)-3-[3-(5-Methyl-1,2,4-oxadiazol-3-yl)azetidin-1-yl]-3-oxoprop-1-en-1-yl}-3,4-dihydro-1,8-naphthyridin-2(1H)-one]: the IC50 amounted to 150 nM.

As to `O=C1CCc2cc(/C=C/C(=O)N3CCCC(COc4ccc(F)cc4)C3)cnc2N1` (stereo not drawn) [Example 9, 6-[(1E)-3-{[3-(4-Fluorophenoxy)methyl]piperidin-1-yl}-3-oxoprop-1-en-1-yl]-3,4-dihydro-1,8-naphthyridin-2(1H)-one], the IC50 was 1300 nM.

Turning to `O=C1Nc2ncc(/C=C/C(=O)N3CCC(COc4ccc(F)cc4)CC3)cc2CC1CO` (stereo not drawn) [Example 28, 3-(Hydroxymethyl)-6-[(1E)-3-{4-[(4-fluorophenoxy)methyl]piperidin-1-yl}-3-oxoprop-1-en-1-yl]-3,4-dihydro-1,8-naphthyridin-2(1H)-one], the IC50 came out at 81 nM.

On to `O=C1CCc2cc(/C=C/C(=O)N3CC(Oc4ccccc4)C3)cnc2N1` [Example 6, 6-[(1E)-3-Oxo-3-(3-phenoxyazetidin-1-yl)prop-1-en-1-yl]-3,4-dihydro-1,8-naphthyridin-2(1H)-one], for which the IC50 was determined as 1000 nM.

As for `NC(=O)C1Cc2cc(/C=C/C(=O)N3CCC(COc4ccc(F)cc4)CC3)cnc2NC1=O` (stereo not drawn) [Example 26, 6-[(1E)-3-{4-[(4-Fluorophenoxy)methyl]piperidin-1-yl}-3-oxoprop-1-en-1-yl]-2-oxo-1,2,3,4-tetrahydro-1,8-naphthyridine-3-carboxamide], the IC50 is 78 nM.

Take `O=C1CCc2cc(/C=C/C(=O)N3CCC3)cnc2N1` [Example 1, 6-[(1E)-3-Azetidin-1-yl-3-oxoprop-1-en-1-yl]-3,4-dihydro-1,8-naphthyridin-2(1H)-one]: the IC50 was 11000 nM.

As for `O=C1CCc2cc(/C=C/C(=O)N3CCC(COc4ccc(F)cc4)CC3)cnc2N1` [Example 5, 6-[(1E)-3-{[4-(4-Fluorophenoxy)methyl]piperidin-1-yl}-3-oxoprop-1-en-1-yl]-3,4-dihydro-1,8-naphthyridin-2(1H)-one], the IC50 came to 250 nM.

In the case of `CC(Cc1ncccn1)=NOC1CN(C(=O)/C=C/c2cnc3c(c2)CCC(=O)N3)C1` (racemic) [Example 21, 6-{(1E)-3-[3-({[(1E)-1-Methyl-2-pyrimidin-2-ylethylidene]amino}oxy)azetidin-1-yl]-3-oxoprop-1-en-1-yl}-3,4-dihydro-1,8-naphthyridin-2(1H)-one], the IC50 came to 870 nM.

As to `O=C1CCc2cc(/C=C/C(=O)N3CCCC[C@@H]3c3nc4ccccc4o3)cnc2N1` [Example 18, 6-{(1E)-3-[2-(1,3-Benzoxazol-2-yl)piperidin-1-yl]-3-oxoprop-1-en-1-yl}-3,4-dihydro-1,8-naphthyridin-2(1H)-one], the IC50 was 1800 nM.

As for `C=C(C)COC1CN(C(=O)/C=C/c2cnc3c(c2)CCC(=O)N3)C1` [Example 19, 6-[(1E)-3-{3-[(2-Methylprop-2-en-1-yl)oxy]azetidin-1-yl}-3-oxoprop-1-en-1-yl]-3,4-dihydro-1,8-naphthyridin-2(1H)-one], the IC50 was found to be 170 nM.

Turning to `O=C1CCc2cc(/C=C/C(=O)N3CC(OCc4ccccc4)C3)cnc2N1` [Example 17, 6-{(1E)-3-[3-(Benzyloxy)azetidin-1-yl]-3-oxoprop-1-en-1-yl}-3,4-dihydro-1,8-naphthyridin-2(1H)-one], the IC50 came out at 50 nM.

As to `O=C1CCc2cc(/C=C/C(=O)N3CCC(Oc4cccnc4)C3)cnc2N1` (stereo not drawn) [Example 16, 6-{(1E)-3-Oxo-3-[3-(pyridin-3-yloxy)pyrrolidin-1-yl]prop-1-en-1-yl}-3,4-dihydro-1,8-naphthyridin-2(1H)-one], the IC50 was determined as 930 nM.

Regarding `NC(=O)c1cc2cc(/C=C/C(=O)N3CCC(COc4ccc(F)cc4)CC3)cnc2[nH]c1=O` [Example 27, 6-[(1E)-3-{4-[(4-Fluorophenoxy)methyl]piperidin-1-yl}-3-oxoprop-1-en-1-yl]-2-oxo-1,2-dihydro-1,8-naphthyridine-3-carboxamide], the IC50 was determined as 550 nM.

For `O=C1CCc2cc(/C=C/C(=O)N3CCC(CCO)CC3)cnc2N1` [Example 4, 6-{(1E)-3-[4-(2-Hydroxyethyl)piperidin-1-yl]-3-oxoprop-1-en-1-yl}-3,4-dihydro-1,8-naphthyridin-2(1H)-one], the IC50 was 5300 nM.

Turning to `O=C1CCc2cc(/C=C/C(=O)N3CCCC3)cnc2N1` [Example 2, 6-[(1E)-3-Oxo-3-pyrrolidin-1-ylprop-1-en-1-yl]-3,4-dihydro-1,8-naphthyridin-2(1H)-one], the half-maximal inhibitory concentration (IC50) amounted to 5500 nM.

In the case of `CC(=O)Nc1ccc(/C=C/C(=O)N2CC(OCc3ccncc3)C2)cn1` [Example 24, N-(5-{(1E)-3-Oxo-3-[3-(pyridin-4-ylmethoxy)azetidin-1-yl]prop-1-en-1-yl}pyridin-2-yl)acetamide], the IC50 stood at 260 nM.

Consider `O=C1CCc2cc(/C=C/C(=O)N3CC(OCc4nccs4)C3)cnc2N1` [Example 20, 6-{(1E)-3-Oxo-3-[3-(1,3-thiazol-2-ylmethoxy)azetidin-1-yl]prop-1-en-1-yl}-3,4-dihydro-1,8-naphthyridin-2(1H)-one], for which the IC50 worked out at 57 nM.

Consider `COC(=O)C1Cc2cc(/C=C/C(=O)N3CCC(COc4ccc(F)cc4)CC3)cnc2NC1=O` (stereo not drawn) [Example 25, Methyl 6-[(1E)-3-{4-[(4-fluorophenoxy)methyl]piperidin-1-yl}-3-oxoprop-1-en-1-yl]-2-oxo-1,2,3,4-tetrahydro-1,8-naphthyridine-3-carboxylate], for which the IC50 is 60 nM.

For the compound `O=C1CCc2cc(/C=C/C(=O)N3CCCCC3)cnc2N1` [Example 3, 6-[(1E)-3-Oxo-3-piperidin-1-ylprop-1-en-1-yl]-3,4-dihydro-1,8-naphthyridin-2(1H)-one], the IC50 is 9900 nM.

For the compound `Cc1nc(C2CCCCN2C(=O)/C=C/c2cnc3c(c2)CCC(=O)N3)no1` (stereo not drawn) [Example 13, 6-{(1E)-3-[2-(5-Methyl-1,2,4-oxadiazol-3-yl)piperidin-1-yl]-3-oxoprop-1-en-1-yl}-3,4-dihydro-1,8-naphthyridin-2(1H)-one], the IC50 was 4100 nM.

As for `O=C1CCc2cc(/C=C/C(=O)N3CCC(O)(c4ccccc4)CC3)cnc2N1` [Example 14, 6-{(1E)-3-[4-Hydroxy-4-phenylpiperidin-1-yl]-3-oxoprop-1-en-1-yl}-3,4-dihydro-1,8-naphthyridin-2(1H)-one], the IC50 amounted to 340 nM.
